Measured values taken from ChEMBL document CHEMBL4411307, “N,N'-diaryl-bishydrazones in a biphenyl platform: Broad spectrum antifungal agents” (Eur J Med Chem, 2019).
Converted amounts (≈) assume the structure as drawn. The source made the active and inactive calls. The rule behind the calls is not given here.

Columns and labels:
Listeria monocytogenes = experiment: Antibacterial activity against Listeria monocytogenes; format: functional, organism-based
Staphylococcus aureus = experiment: Antibacterial activity against methicillin-resistant Staphylococcus aureus; format: functional, organism-based
Enterococcus = experiment: Antibacterial activity against vancomycin-resistant Enterococcus; format: functional, organism-based
Candida albicans [1] = experiment: Antifungal activity against fluconazole/ITC-resistant Candida albicans ATCC 10231 measured after 48 hrs by CLSI M27-A3 protocol based method; format: functional; settings: ATCC 10231, 48 h
Candida albicans [2] = experiment: Antifungal activity against fluconazole/ITC-resistant Candida albicans ATCC 64124 measured after 48 hrs by CLSI M27-A3 protocol based method; format: functional; settings: ATCC 64124, 48 h
Candida albicans [3] = experiment: Antifungal activity against fluconazole/ITC-susceptible Candida albicans ATCC MYA-2876 measured after 48 hrs by CLSI M27-A3 protocol based method; format: functional; settings: ATCC MYA-2876, 48 h
Candida albicans [4] = experiment: Antifungal activity against fluconazole/ITC-resistant Candida albicans ATCC 90819 measured after 48 hrs by CLSI M27-A3 protocol based method; format: functional; settings: ATCC 90819, 48 h
Candida albicans [5] = experiment: Antifungal activity against fluconazole/ITC-susceptible Candida albicans ATCC MYA-2310 measured after 48 hrs by CLSI M27-A3 protocol based method; format: functional; settings: ATCC MYA-2310, 48 h
Candida albicans [6] = experiment: Antifungal activity against fluconazole/ITC-resistant Candida albicans ATCC MYA-1237 measured after 48 hrs by CLSI M27-A3 protocol based method; format: functional; settings: ATCC MYA-1237, 48 h
Candida albicans [7] = experiment: Antifungal activity against fluconazole/ITC-resistant Candida albicans ATCC MYA-1003 measured after 48 hrs by CLSI M27-A3 protocol based method; format: functional; settings: ATCC MYA-1003, 48 h
Nakaseomyces glabratus = experiment: Antifungal activity against Candida glabrata ATCC 2001 measured after 48 hrs by CLSI M27-A3 protocol based method; format: functional; settings: CBS 138, 48 h
Pichia kudriavzevii = experiment: Antifungal activity against Candida krusei ATCC 6258 measured after 48 hrs by CLSI M27-A3 protocol based method; format: functional; settings: ATCC 6258, 48 h
Candida parapsilosis = experiment: Antifungal activity against Candida parapsilosis ATCC 22019 measured after 48 hrs by CLSI M27-A3 protocol based method; format: functional; settings: Lodderomyces parapsilosis, ATCC 22019, 48 h
Aspergillus flavus = experiment: Antifungal activity against Aspergillus flavus ATCC MYA-3631 measured after 48 hrs by CLSI M38-A2 protocol based method; format: functional; settings: ATCC MYA-3631, 48 h
Aspergillus nidulans = experiment: Antifungal activity against Aspergillus nidulans ATCC 38163 measured after 48 hrs by CLSI M38-A2 protocol based method; format: functional; settings: ATCC 38163, 48 h
Aspergillus terreus = experiment: Antifungal activity against Aspergillus terreus ATCC MYA-3633 measured after 48 hrs by CLSI M38-A2 protocol based method; format: functional; settings: ATCC MYA-3633, 48 h
A549 = experiment: Cytotoxicity against human A549 cells after 24 hrs by resazurin based assay; format: cell-based; settings: a549, 24 h
BEAS-2B = experiment: Cytotoxicity against human BEAS2B cells after 24 hrs by resazurin based assay; format: cell-based
[8] = Selectivity index, ratio of CC50 for human A549 cells to MIC for fluconazole/ITC-resistant Candida albicans ATCC 10231; format: toxicity; settings: read-out: Selectivity Index
[9] = Selectivity index, ratio of CC50 for human A549 cells to MIC for fluconazole/ITC-resistant Candida albicans ATCC 64124; format: toxicity; settings: read-out: Selectivity Index
[10] = Selectivity index, ratio of CC50 for human A549 cells to MIC for fluconazole/ITC-susceptible Candida albicans ATCC MYA-2876; format: toxicity; settings: read-out: Selectivity Index
[11] = Selectivity index, ratio of CC50 for human A549 cells to MIC for fluconazole/ITC-resistant Candida albicans ATCC 90819; format: toxicity; settings: read-out: Selectivity Index
[12] = Selectivity index, ratio of CC50 for human A549 cells to MIC for fluconazole/ITC-susceptible Candida albicans ATCC MYA-2310; format: toxicity; settings: read-out: Selectivity Index
[13] = Selectivity index, ratio of CC50 for human A549 cells to MIC for fluconazole/ITC-resistant Candida albicans ATCC MYA-1237; format: toxicity; settings: read-out: Selectivity Index
[14] = Selectivity index, ratio of CC50 for human A549 cells to MIC for fluconazole/ITC-resistant Candida albicans ATCC MYA-1003; format: toxicity; settings: read-out: Selectivity Index
[15] = Selectivity index, ratio of CC50 for human A549 cells to MIC for Candida glabrata ATCC 2001; format: toxicity; settings: read-out: Selectivity Index
[16] = Selectivity index, ratio of CC50 for human A549 cells to MIC for Candida krusei ATCC 6258; format: toxicity; settings: read-out: Selectivity Index
[17] = Selectivity index, ratio of CC50 for human A549 cells to MIC for Candida parapsilosis ATCC 22019; format: toxicity; settings: read-out: Selectivity Index
[18] = Selectivity index, ratio of CC50 for human A549 cells to MIC for Aspergillus flavus ATCC MYA-3631; format: toxicity; settings: read-out: Selectivity Index
[19] = Selectivity index, ratio of CC50 for human A549 cells to MIC for Aspergillus nidulans ATCC 38163; format: toxicity; settings: read-out: Selectivity Index
[20] = Selectivity index, ratio of CC50 for human A549 cells to MIC for Aspergillus terreus ATCC MYA-3633; format: toxicity; settings: read-out: Selectivity Index
[21] = Hemolytic activity in mouse RBC at […] after 1 hr relative to control; format: ADME, cell-based, Erythrocyte; settings: red blood cells (erythrocytes), read-out: Activity; also: tested at 0.48 µg/mL
[22] = Hemolytic activity in mouse RBC at […] ug/ml after 1 hr relative to control; format: ADME, cell-based, Erythrocyte; settings: red blood cells (erythrocytes), read-out: Activity
[23] = Hemolytic activity in mouse RBC at 1.95 ug/ml after 1 hr relative to control; format: ADME, cell-based, Erythrocyte; settings: red blood cells (erythrocytes), read-out: Activity
[24] = Hemolytic activity in mouse RBC at 3.9 ug/ml after 1 hr relative to control; format: ADME, cell-based, Erythrocyte; settings: red blood cells (erythrocytes), read-out: Activity
[25] = Hemolytic activity in mouse RBC at 7.8 ug/ml after 1 hr relative to control; format: ADME, cell-based, Erythrocyte; settings: red blood cells (erythrocytes), read-out: Activity
[26] = Hemolytic activity in mouse RBC at 31.3 ug/ml after 1 hr relative to control; format: ADME, cell-based, Erythrocyte; settings: red blood cells (erythrocytes), read-out: Activity
[27] = Hemolytic activity in mouse RBC at 62.5 ug/ml after 1 hr relative to control; format: ADME, cell-based, Erythrocyte; settings: red blood cells (erythrocytes), read-out: Activity
[28] = Selectivity index, ratio of compound concentration showing <20 to <30% hemolysis in mouse RBC to MIC for fluconazole/ITC-resistant Candida albicans ATCC 10231; format: toxicity; settings: red blood cells (erythrocytes), read-out: Selectivity Index
[29] = Selectivity index, ratio of compound concentration showing <20 to <30% hemolysis in mouse RBC to MIC for fluconazole/ITC-resistant Candida albicans ATCC 64124; format: toxicity; settings: red blood cells (erythrocytes), read-out: Selectivity Index
[30] = Selectivity index, ratio of compound concentration showing <20 to <30% hemolysis in mouse RBC to MIC for fluconazole/ITC-susceptible Candida albicans ATCC MYA-2876; format: toxicity; settings: red blood cells (erythrocytes), read-out: Selectivity Index
[31] = Selectivity index, ratio of compound concentration showing <20 to <30% hemolysis in mouse RBC to MIC for fluconazole/ITC-resistant Candida albicans ATCC 90819; format: toxicity; settings: red blood cells (erythrocytes), read-out: Selectivity Index
[32] = Selectivity index, ratio of compound concentration showing <20 to <30% hemolysis in mouse RBC to MIC for fluconazole/ITC-susceptible Candida albicans ATCC MYA-2310; format: toxicity; settings: mouse red blood cells (RBC), read-out: Selectivity Index
[33] = Selectivity index, ratio of compound concentration showing <20 to <30% hemolysis in mouse RBC to MIC for fluconazole/ITC-resistant Candida albicans ATCC MYA-1237; format: toxicity; settings: mouse red blood cells (RBC), read-out: Selectivity Index
[34] = Selectivity index, ratio of compound concentration showing <20 to <30% hemolysis in mouse RBC to MIC for fluconazole/ITC-resistant Candida albicans ATCC MYA-1003; format: toxicity; settings: mouse red blood cells (RBC), read-out: Selectivity Index
[35] = Selectivity index, ratio of compound concentration showing <20 to <30% hemolysis in mouse RBC to MIC for Candida glabrata ATCC 2001; format: toxicity; settings: mouse red blood cells (RBC), read-out: Selectivity Index
[36] = Selectivity index, ratio of compound concentration showing <20 to <30% hemolysis in mouse RBC to MIC for Candida krusei ATCC 6258; format: toxicity; settings: mouse red blood cells (RBC), read-out: Selectivity Index
[37] = Selectivity index, ratio of compound concentration showing <20 to <30% hemolysis in mouse RBC to MIC for Candida parapsilosis ATCC 22019; format: toxicity; settings: mouse red blood cells (RBC), read-out: Selectivity Index
[38] = Selectivity index, ratio of compound concentration showing <20 to <30% hemolysis in mouse RBC to MIC for Aspergillus flavus ATCC MYA-3631; format: toxicity; settings: mouse red blood cells (RBC), read-out: Selectivity Index
[39] = Selectivity index, ratio of compound concentration showing <20 to <30% hemolysis in mouse RBC to MIC for Aspergillus nidulans ATCC 38163; format: toxicity; settings: mouse red blood cells (RBC), read-out: Selectivity Index
[40] = Selectivity index, ratio of compound concentration showing <20 to <30% hemolysis in mouse RBC to MIC for Aspergillus terreus ATCC MYA-3633; format: toxicity; settings: mouse red blood cells (RBC), read-out: Selectivity Index
[41] = target: Voltage-gated inwardly rectifying potassium channel KCNH2 (Homo sapiens, UniProt Q12809); experiment: Inhibition of [3H]-dofetilide binding to human ERG expressed in HEK293 cell membranes measured after 1 hr by liquid scintillation counting method
Chain of Voltage-gated inwardly rectifying potassium channel KCNH2 (Q12809 whole entry): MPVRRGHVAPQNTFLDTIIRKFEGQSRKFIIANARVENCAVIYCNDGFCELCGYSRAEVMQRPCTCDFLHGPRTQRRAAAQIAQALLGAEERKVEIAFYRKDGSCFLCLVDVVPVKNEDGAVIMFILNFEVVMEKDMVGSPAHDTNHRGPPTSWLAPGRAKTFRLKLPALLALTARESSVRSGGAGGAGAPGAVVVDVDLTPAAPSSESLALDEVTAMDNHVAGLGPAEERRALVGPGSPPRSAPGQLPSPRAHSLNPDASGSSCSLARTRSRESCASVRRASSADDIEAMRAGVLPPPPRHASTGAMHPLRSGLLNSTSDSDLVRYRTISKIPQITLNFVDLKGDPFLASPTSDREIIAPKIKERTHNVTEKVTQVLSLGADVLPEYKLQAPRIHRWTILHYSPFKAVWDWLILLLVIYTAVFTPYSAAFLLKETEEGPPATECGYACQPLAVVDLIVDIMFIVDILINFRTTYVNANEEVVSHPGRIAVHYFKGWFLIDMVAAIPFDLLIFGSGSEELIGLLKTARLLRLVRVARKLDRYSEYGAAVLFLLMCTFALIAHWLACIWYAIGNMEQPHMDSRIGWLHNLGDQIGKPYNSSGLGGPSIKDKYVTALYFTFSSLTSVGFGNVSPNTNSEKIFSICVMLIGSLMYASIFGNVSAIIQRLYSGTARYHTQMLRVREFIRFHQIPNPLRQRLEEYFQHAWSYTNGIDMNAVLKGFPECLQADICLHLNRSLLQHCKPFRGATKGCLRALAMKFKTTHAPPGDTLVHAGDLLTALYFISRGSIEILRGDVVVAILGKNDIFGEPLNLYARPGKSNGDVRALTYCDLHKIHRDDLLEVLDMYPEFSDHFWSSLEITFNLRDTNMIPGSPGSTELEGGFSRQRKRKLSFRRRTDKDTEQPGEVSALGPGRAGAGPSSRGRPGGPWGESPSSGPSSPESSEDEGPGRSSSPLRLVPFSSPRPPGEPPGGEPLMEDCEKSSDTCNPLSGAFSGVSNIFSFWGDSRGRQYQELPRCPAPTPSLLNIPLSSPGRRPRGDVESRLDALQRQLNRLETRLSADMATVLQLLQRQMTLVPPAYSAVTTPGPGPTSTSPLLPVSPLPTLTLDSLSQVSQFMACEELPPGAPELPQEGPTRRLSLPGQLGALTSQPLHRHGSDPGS

COc1ccc(N/N=C/c2ccc(-c3ccc(/C=N/Nc4ccc(OC)cc4)cc3)cc2)cc1
Activity (Listeria monocytogenes): inactive | Activity (Staphylococcus aureus): inactive | Activity (Enterococcus): inactive | MIC (Candida albicans [1]): 7.8 µg/mL (≈ 17.3 µM) | MIC (Candida albicans [2]): 3.9 µg/mL (≈ 8.66 µM) | MIC (Candida albicans [3]): 7.8 µg/mL (≈ 17.3 µM) | MIC (Candida albicans [4]): 7.8 µg/mL (≈ 17.3 µM) | MIC (Candida albicans [5]): 3.9 µg/mL (≈ 8.66 µM) | MIC (Candida albicans [6]): 15.6 µg/mL (≈ 34.6 µM) | MIC (Candida albicans [7]): 7.8 µg/mL (≈ 17.3 µM) | MIC (Nakaseomyces glabratus): 7.8 µg/mL (≈ 17.3 µM) | MIC (Pichia kudriavzevii): 7.8 µg/mL (≈ 17.3 µM) | MIC (Candida parapsilosis): 15.6 µg/mL (≈ 34.6 µM) | MIC (Aspergillus flavus): > 31.3 µg/mL | MIC (Aspergillus nidulans): 7.8 µg/mL (≈ 17.3 µM) | MIC (Aspergillus terreus): > 31.3 µg/mL | CC50 (A549): > 31 µg/mL | CC50 (BEAS-2B): 16.4 µg/mL (≈ 36.4 µM) | selectivity ratio [8]: 4 | selectivity ratio [9]: 8 | selectivity ratio [10]: 4 | selectivity ratio [11]: 4 | selectivity ratio [12]: 8 | selectivity ratio [13]: 2 | selectivity ratio [14]: 4 | selectivity ratio [15]: 4 | selectivity ratio [16]: 4 | selectivity ratio [17]: 2 | selectivity ratio [18]: 1 | selectivity ratio [19]: 4 | selectivity ratio [20]: 1 | hemolysis at 1 h, […] [21]: 1.2% | hemolysis at 1 h, 15.6 ug/ml ([22]; at 15.6 µg/mL): 6.7% | hemolysis at 1 h, 0.975 ug/ml [22]: 1.6% | hemolysis at 1 h, 1.95 ug/ml [23]: 1.9% | hemolysis at 1 h, 3.9 ug/ml [24]: 2.8% | hemolysis at 1 h, 7.8 ug/ml [25]: 4.2% | hemolysis at 1 h, 31.3 ug/ml [26]: 12.6% | hemolysis at 1 h, 62.5 ug/ml [27]: 22.7% | selectivity ratio [28]: 1 to 32 | selectivity ratio [29]: 1 to 32 | selectivity ratio [30]: 1 to 32 | selectivity ratio [31]: 1 to 32 | selectivity ratio [32]: 1 to 32 | selectivity ratio [33]: 1 to 32 | selectivity ratio [34]: 1 to 32 | selectivity ratio [35]: 1 to 32 | selectivity ratio [36]: 1 to 32 | selectivity ratio [37]: 1 to 32 | selectivity ratio [38]: 1 to 32 | selectivity ratio [39]: 1 to 32 | selectivity ratio [40]: 1 to 32 | IC50 [41]: > 30 µM
